Several values for one entry are separate records, joined by “and”; a condition that tells them apart may be missing. Identical values can stand only once.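 Results reflect a 48-hour exposure of cells in 96-well plates to compound at five concentrations. Here, GI50 denotes the concentration required for 50% inhibition of growth. TGI marks complete inhibition of growth.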
How the values were obtained:
Assay in all cases: NCI-60 cell line screen, 48 h
SF-268 CNS = tested on: SF-268 CNS
A549 NSCLC = tested on: A549 NSCLC
HCT-15 colon = tested on: HCT-15 colon
OVCAR-5 ovarian = tested on: OVCAR-5 ovarian
OVCAR-3 ovarian = tested on: OVCAR-3 ovarian
NCI-H226 lung = tested on: NCI-H226 lung
HOP-62 NSCLC = tested on: HOP-62 NSCLC
NCI-H23 lung = tested on: NCI-H23 lung
LOX IMVI melanoma = tested on: LOX IMVI melanoma
SR leukemia = tested on: SR leukemia

Structure (SMILES) | TGI (SF-268 CNS) [µM] | TGI (A549 NSCLC) [µM] | TGI (HCT-15 colon) | TGI (OVCAR-5 ovarian) | TGI (OVCAR-3 ovarian) [µM] | TGI (NCI-H226 lung) | TGI (HOP-62 NSCLC) | TGI (NCI-H23 lung) | TGI (LOX IMVI melanoma) | GI50 (SF-268 CNS) [nM] | GI50 (A549 NSCLC) [nM] | GI50 (HCT-15 colon) [nM] | GI50 (OVCAR-5 ovarian) | GI50 (OVCAR-3 ovarian) [nM] | GI50 (SR leukemia) [nM] | TGI (SR leukemia) [µM] | GI50 (NCI-H226 lung) | GI50 (HOP-62 NSCLC) | GI50 (NCI-H23 lung) | GI50 (LOX IMVI melanoma) [nM]
Cc1nc(-c2ccccc2)c(-c2ccccc2)s1 | 78.6 | 89 | 39 µM | > 100 µM | 87.4 | 42.7 µM | > 100 µM | 97.7 µM | 37.1 µM |  |  |  |  |  |  |  |  |  |  | 
O=C(/C(=C/c1cccc([N+](=O)[O-])c1)c1ccccc1)c1ccccc1 | 15.5 | 30.1 | 16.5 µM | 25.8 µM | 10.9 | 11.5 µM | 7.56 µM | 17 µM |  | 3900 | 4310 | 2750 | 5560 nM | 3660 | 2700 | > 100 | 3080 nM | 2870 nM | 2920 nM | 
Nc1ncn(C2CC(O)C(CO)O2)c(=O)n1 (stereo not drawn) | > 375 | > 375 | > 302 µM | > 375 µM | 162 | > 331 µM | > 319 µM | > 375 µM | > 375 µM |  |  |  |  |  |  | > 141 |  |  |  | 
COc1ncc(-c2ccc3ncnc(Nc4cccc(Cl)c4)c3c2)cc1NS(=O)(=O)CCN1CCOCC1 | > 100 |  | > 100 µM |  |  | > 100 µM |  | > 100 µM |  | 382 |  | 448 |  |  | 653 | > 100 | 659 nM |  | 768 nM | 
CNc1nc(N)c(N=O)c(Nc2ccc(Br)cc2)n1 | > 100 | > 100 | > 100 µM | > 100 µM | > 100 |  | > 100 µM | > 100 µM | > 100 µM |  |  |  |  |  |  | > 100 |  |  |  | 
CCCCOC(=O)NC(=O)c1cn(C2CCCCC2)c(=O)[nH]c1=O | > 100 | > 100 | > 100 µM | > 100 µM | > 100 | 46.3 µM | 65.9 µM | > 100 µM | > 100 µM |  |  |  |  |  |  |  |  |  |  | 
N#CCC(=O)NC1C2CC3CC(C2)CC1C3 (stereo not drawn) | 35.7 | > 100 | 35.9 µM | 36.9 µM | 32 | 48.5 µM | 41.7 µM | 32.6 µM | 23.8 µM |  |  |  |  |  |  |  |  |  |  | 
C=C1CC[C@@H]2[C@](C)(COC(C)=O)[C@H](OC(C)=O)CC[C@@]2(C)[C@@H]1CC(Nc1ccc(S(=O)(=O)Nc2ncccn2)cc1)C1=CCOC1=O (stereo partly drawn) | 4.16 | 9.97 | 3.33 µM | 3.85 µM | 2.54 |  | 6.44 µM | 5.38 µM | 2.21 µM | 1930 | 3180 | 1210 | 1980 nM | 1210 | 313 | 17.2 |  | 3020 nM | 2110 nM | 891
COC(=O)c1cc(C)c(C)c2c1NC(=O)CNC2=O |  | > 100 | > 100 µM |  | > 100 |  | > 100 µM | > 100 µM |  |  |  |  |  |  |  | > 100 |  |  |  | 
NCCCn1c2c(c3ccc([N+](=O)[O-])cc3c1=O)C(=O)c1cc(Br)ccc1-2 | 0.142 | 0.245 | 0.155 µM and 0.0641 µM | 0.409 µM and 0.688 µM |  | 0.326 µM and 0.0684 µM | 0.171 µM and 0.388 µM | 0.118 µM and 0.151 µM | 0.109 µM and 0.0227 µM | 3.58 | 89.7 | 35 | 197 nM and 140 nM | 254 |  |  | 45.1 nM and 11 nM | 34 nM and 32.9 nM | 28.9 nM and 21.3 nM | 6.83
C=C[C@H]1C[C@@H]2C[C@@H]3[C@H]4C/C=C\C(=O)NCCCC5NC(=O)C(=C(O)/C=C/[C@@H]4CC(=O)[C@H]3[C@@H]2[C@H]1C)C5=O (stereo partly drawn) | 0.334 | 1.91 | 0.949 µM | 1.72 µM | 0.334 | 0.379 µM | 0.31 µM | 1.47 µM | 0.368 µM | 172 | 620 | 294 | 436 nM | 183 |  |  | 166 nM | 165 nM | 627 nM | 187
COC(=O)c1c(C)[nH]c(/C=C2\N=C(c3ccc[nH]3)C=C2OC)c1C | > 100 |  | 1.24 µM | 3.9 µM | 2.09 | 7.92 µM |  | 4.55 µM |  | 260 | 387 | 37.5 | 1400 nM | 152 | 94.7 | 0.679 | 1660 nM | 769 nM | 483 nM | 
O=C(O)[C@@H]1CCCCN1Cc1cc2cc3c(cc2c2cc(OCc4ccccc4)ccc12)OCO3 | 21.2 | 15.1 | 13.7 µM | 44 µM | 36.2 | 5.7 µM | 31.6 µM | 45.7 µM | 3.56 µM | 2980 | 3740 | 3270 | 19200 nM | 6790 |  |  | 2090 nM | 16100 nM | 21600 nM | 1750
CC(C)(C)c1ccc(O)c(CN(Cc2cc(C(C)(C)C)ccc2O)c2ccccc2)c1 | 38.3 | 35.9 | 35.8 µM | 31.8 µM | 34.1 |  | 47.6 µM | 40.8 µM | 26.8 µM |  |  |  |  |  |  | 38.1 |  |  |  | 
COc1ccc2nc3cc(Cl)ccc3c(NCCN)c2c1 |  |  | 3.9 µM |  |  | > 100 µM | 3.03 µM |  |  |  |  | 1870 |  |  | 1440 | 5.4 | 4750 nM | 1580 nM |  | 
Cn1c2ccccc2c2c3[nH]c(=O)[nH]c(=O)c3c3c4ccccc4n(C)c3c21 | 15.6 | > 100 | > 100 µM | > 100 µM | 7 | 5.37 µM | 5.83 µM | 19.4 µM | 11.9 µM | 3120 | 2860 | 1620 | 3000 nM | 2380 |  |  | 1660 nM | 2030 nM | 3470 nM | 2130
COc1ccc(/C(Cl)=C(\C=O)c2ccc([N+](=O)[O-])cc2)cc1 | 92.3 | 66.6 | > 70.3 µM | > 100 µM | 53.4 | 46.9 µM | 52.8 µM | 50.6 µM | > 48.1 µM |  |  |  |  |  |  |  |  |  |  | 
COC(C(O)c1ccc2c(c1)OCO2)P(=O)(c1ccccc1)c1ccccc1 (stereo not drawn) | > 100 |  |  | > 100 µM | 40.3 | > 100 µM | > 100 µM | > 100 µM |  |  |  |  |  |  |  | > 100 |  |  |  | 
